We go through three compounds from publication PMC5550016, “Aminophosphinates against Helicobacter pylori ureolysis—Biochemical and whole-cell inhibition characteristics” (PLoS ONE, 2017).

Each structure is given as a SMILES string. “And” between values parts separate entries of the source, which are not always exact repeats. Identical values can stand only once. Like-named read-outs stand apart in the source and are kept apart here.

On the set-up of data set [1]: method as in PMID 9508511. The following applies: pH 2; cited from earlier work.
Data set [2] deals with T1, purified recombinant urease from H. pylori (Helicobacter pylori, UniProt B5Z674).
T1 construct: plasmid pGEM::ureOP, which encodes the entire urease gene cluster, was used to produce recombinant H. pylori urease; made in house; host or cells: E. coli Rosetta2 (DE3) + pGEM::ureOP
Description: Inhibition of purified recombinant H. pylori urease (phenol-hypochlorite, Lineweaver-Burk). The class given is biochemical. The following applies: Ki, 50 mM phosphate buffer pH 7.5, 37°C, 0.1–2.5 mM urea; competitive reversible inhibition. As for the experimental part:
The kinetic parameters of urease were determined by measuring the initial rates of the reactions in 50 mM phosphate buffer (pH 7.5) at 37°C. Ammonia was routinely quantified by the phenol hypochlorite method as reported previously.
Inhibition studies were conducted by initiating the enzymatic reaction with the addition of the enzyme into assay mixtures (200 μL total volume) containing increasing concentrations of inhibitors and 0.1–2.5 mM urea. After 15 min of incubation at 37°C, the reaction was stopped by adding phenol-hypochlorite reagents and the absorbance of the formed indophenol blue complexes was measured at 650 nm. The Ki values were determined from Lineweaver-Burk plots after testing at least five inhibitor concentrations in a range that depended on their inhibitory strength. The concentration of inhibitor that caused the loss of 50% of the enzyme’s activity (IC50) was determined from the measurements that were performed at a urea concentration of 0.6 mM and calculated using the linear regression of the urease activity versus the logarithm of the inhibitor concentrations.
The values of Ki and IC50 for all analyzed compounds were calculated using the appropriate equations in GraphPad Prism 5. Errors were reported with two significant digits, and each measured parameter was given with the same number of decimal places as its error [32].

In data set [3] the target is T2, urease in intact E. coli (pGEM::ureOP) cells (Helicobacter pylori, UniProt B5Z674).
T2 construct: plasmid pGEM::ureOP, which encodes the entire urease gene cluster, was used to produce recombinant H. pylori urease; expressed in transfected cells; host or cells: E. coli Rosetta2 (DE3) transformed with pGEM::ureOP
Nature of the data set: Urease inhibition in whole cells of E. coli + pGEM::ureOP. To be noted: IC50 exceeding 2 mM considered not active. The class given is cell-based. As for the experimental part:
The expression strain E. coli + pGEM::ureOP was cultured in 150 mL of LB broth (Biocorp, Poland) with 100 μg/mL ampicillin (Polfa, Tarchomin, Poland) at 37°C and induced with IPTG (0.75 mM) and Ni^2+ (0.75 mM) during the exponential growth phase, which was determined by the OD600 measurements (OD600 = 0.6). Further expression was conducted for 24 h at 22°C. The bacterial culture (1 mL) was harvested via centrifugation (2 min, 20 376 x g, 37°C) and washed three times with PBS. The pellets from 1-mL samples of the expression cell culture were resuspended in 100 μL of PBS. The hydrolysis of urea that is catalyzed by whole bacterial cells was performed in 96-well plates (Rotilabo, U-profile). The reaction progress curves were obtained by the addition of bacterial cells (1×10^9 CFU/mL final concentration) into mixtures (300 μL final volume) that contained 5 mM urea and various inhibitor concentrations that depended on their inhibitory strength. Alternatively, the reaction was initiated via the addition of a concentrated solution of urea after a 120-min preincubation of bacterial cells with the inhibitor. Samples (50 μL) of the reaction mixture were removed after the appropriate reaction time. The enzymatic reactions in the samples were terminated via the introduction of 100 μL of phenol-sodium nitroprusside solution, immediately followed by the addition of 100 μL of NaOH-hypochlorite solution. The absorption of indophenol blue was measured at 650 nm using a TECAN-Sunrise absorbance reader equipped with a gradient filter and Magellan software. The IC50 values were determined from the linear regression of the urease activity versus the logarithm of the inhibitor concentration. The reaction was studied in the absence and in the presence of the inhibitor. The influence of dimethylformamide (DMF), which was used as a solvent for several compounds, was also determined.

For data set [4], the target named is T3, urease in intact H. pylori J99 (Helicobacter pylori, UniProt P69997).
T3 construct: In the intact H. pylori J99 cells, the urease susceptibility profile was similar to that of E. coli (pGEM::ureOP); endogenous in cells
Nature of the data set: Urease inhibition in whole cells of H. pylori J99. The class given is cell-based.

The subject of data set [5] is mouse fibroblasts BALB/3T3. Nature of the data set: Sulforhodamine B antiproliferative assay, BALB/3T3. The class given is cell-based. The following applies: compound 0.5 mM, 72 h, read-out: % Proliferation inhibition ± SD. As for the experimental part:
(§1) The BALB/3T3 cell line was cultured in Dulbecco MEM (Gibco, Scotland) supplemented with 10% (v/v) FBS (Sigma-Aldrich, Poznań, Poland) and 2 mM L-glutamine (Sigma-Aldrich, Poznań, Poland). The MCF-10A cell line was cultured in F-12 Nutrient mixture supplemented with 5% (v/v) horse serum (both Gibco, Scotland), 0.05 μg/mL cholera toxin, 10 μg/mL insulin, 0.5 μg/mL hydrocortisone, and 20 ng/mL EGFH (all Sigma-Aldrich, Poznań, Poland). The Eph4-Ev cell line was cultured in Dulbecco MEM supplemented with 2 mM L-glutamine, 10% (v/v) calf bovine serum (ATCC Rockville, Maryland, USA) and puromycin (Sigma-Aldrich, Poznań, Poland). The HEC A10 cell line was cultured in OPTI-MEM (IIET, Wroclaw, Poland) supplemented with 2 mM L-glutamine and 5% (v/v) FBS. All culture media were additionally supplemented with antibiotics: 100 U/mL penicillin and 100 μg/mL streptomycin (both Polfa-Tarchomin, Poland). During all experiments, cells were maintained in a humid atmosphere at 37°C and 5% CO2 and passaged twice a week using EDTA-Trypsin (pH 8; IIET, Wroclaw, Poland) solution as a detachment agent.
(§2) This assay was used as previously described with minor modifications. Briefly, 24 h before adding the tested compounds, cells were seeded in 96-well plates (Sarstedt, Germany) in appropriate culture medium with 10^5 […] (100 μL/well). Cells were treated with each compound in at least four concentrations in the range from 500–4 μM for 72 h. Next, cells were fixed with 50 μL/well of 50% (w/v) trichloroacetic acid (Avantor Performance Materials, Gliwice, Poland). After a 1-hour incubation, the plates were washed several times with tap water, and 50 μL of 0.4% (w/v) solution of sulforhodamine B (Sigma-Aldrich, Germany) in 1% (v/v) acetic acid (Avantor Performance Materials, Gliwice, Poland) was added to each well. After a 30-min incubation at room temperature, unbound dye was washed out with 1% (v/v) acetic acid, whereas bound dye was solubilized with 10 mM unbuffered TRIS (Avantor Performance Materials, Gliwice, Poland) solution. The entire procedure was performed using an EL-406 washing station (BioTek Instruments, USA). Next, absorbance at 540 nm was measured using a Synergy H4 Hybrid Reader (BioTek Instruments, USA). Compounds at each concentration were tested in triplicate in a single experiment, and each experiment was repeated three times independently. The results were calculated using the Prolab-3 system based on Cheburator 0.4 software and was presented as proliferation inhibition percentages at the highest concentration used.
(In general: Sulforhodamine B stains cellular protein and so reports cell mass.)

Data set [6] has as its system murine mammary gland epithelium Eph4-Ev. Description: Sulforhodamine B antiproliferative assay, Eph4-Ev. The class given is cell-based. To be noted: Mus musculus, compound 0.5 mM, 72 h, read-out: % Proliferation inhibition ± SD. As for the experimental part:
as §1, §2

For data set [7], the system named is immortalized murine endothelial cell line from peripheral lymph node HEC A10. Description: Sulforhodamine B antiproliferative assay, HEC A10. The class given is cell-based. To be noted: Mus musculus, compound 0.5 mM, 72 h, read-out: % Proliferation inhibition ± SD. As for the experimental part: as §1, §2
The subject of data set [8] is human mammary gland MCF-10A. Nature of the data set: Sulforhodamine B antiproliferative assay, MCF-10A. The following applies: compound 0.5 mM, 72 h, read-out: % Proliferation inhibition ± SD. The class given is cell-based. As for the experimental part: as §1, §2
Data set [9] has as its target purified urease from Sporosarcina pasteurii (SPU). Details: method as in PMID 18717581, PMID 20684601, PMID 21559954, PMID 25699141. The following applies: read-out: Ki against SPU; cited from earlier work.
Data set [10] addresses purified urease from Proteus mirabilis (PMU). Details: method as in PMID 18717581, PMID 20684601, PMID 21559954, PMID 25699141. The following applies: read-out: Ki against PMU; cited from earlier work.
[11] abbreviates: IC500, without preincubation of cells with inhibitory compounds, 30-min reactions, 5 mM urea.
Setting [12] is: IC502h PBS, 2 h of preincubation with inhibitors in PBS.
Setting [13] is: cells grown with urea, 2 h of preincubation with inhibitors in PBS under microaerobic conditions, read-out: IC502h PBS.
Setting [14] is: cells grown with urea, 2 h of preincubation with inhibitors in growth medium under microaerobic conditions, read-out: IC502h medium.
Setting [15] is: cells grown with urea, without preincubation, read-out: IC500.
Setting [16] is: cells grown without urea, 2 h of preincubation with inhibitors in PBS under microaerobic conditions, read-out: IC502h PBS.
Where [17] appears, read: cells grown without urea, without preincubation, read-out: IC500.

T2 sequence (B5Z674 whole entry, looked up): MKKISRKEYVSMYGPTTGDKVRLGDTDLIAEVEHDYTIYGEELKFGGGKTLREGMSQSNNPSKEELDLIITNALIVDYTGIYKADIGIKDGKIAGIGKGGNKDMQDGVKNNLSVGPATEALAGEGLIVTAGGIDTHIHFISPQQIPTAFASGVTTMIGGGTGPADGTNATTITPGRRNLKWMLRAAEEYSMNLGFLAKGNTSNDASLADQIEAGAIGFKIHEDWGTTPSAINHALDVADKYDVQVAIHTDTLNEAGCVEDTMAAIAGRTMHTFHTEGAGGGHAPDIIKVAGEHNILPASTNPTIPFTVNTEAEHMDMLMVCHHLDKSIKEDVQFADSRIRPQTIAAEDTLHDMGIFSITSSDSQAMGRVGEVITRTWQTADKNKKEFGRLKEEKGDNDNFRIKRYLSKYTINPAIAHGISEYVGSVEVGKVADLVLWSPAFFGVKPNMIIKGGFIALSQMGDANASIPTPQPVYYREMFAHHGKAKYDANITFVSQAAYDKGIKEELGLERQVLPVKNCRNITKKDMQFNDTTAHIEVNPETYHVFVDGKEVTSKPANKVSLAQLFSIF
T1 sequence (B5Z674 whole entry, looked up): as above
T3 sequence (Q9ZMZ4 whole entry): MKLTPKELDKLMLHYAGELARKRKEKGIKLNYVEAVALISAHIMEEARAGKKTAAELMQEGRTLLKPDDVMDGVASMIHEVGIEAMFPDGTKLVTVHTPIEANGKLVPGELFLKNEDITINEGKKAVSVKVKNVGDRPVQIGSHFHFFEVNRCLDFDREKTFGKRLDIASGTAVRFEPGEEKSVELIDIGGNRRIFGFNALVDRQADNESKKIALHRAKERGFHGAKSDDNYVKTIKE
T3 sequence (P69997 whole entry): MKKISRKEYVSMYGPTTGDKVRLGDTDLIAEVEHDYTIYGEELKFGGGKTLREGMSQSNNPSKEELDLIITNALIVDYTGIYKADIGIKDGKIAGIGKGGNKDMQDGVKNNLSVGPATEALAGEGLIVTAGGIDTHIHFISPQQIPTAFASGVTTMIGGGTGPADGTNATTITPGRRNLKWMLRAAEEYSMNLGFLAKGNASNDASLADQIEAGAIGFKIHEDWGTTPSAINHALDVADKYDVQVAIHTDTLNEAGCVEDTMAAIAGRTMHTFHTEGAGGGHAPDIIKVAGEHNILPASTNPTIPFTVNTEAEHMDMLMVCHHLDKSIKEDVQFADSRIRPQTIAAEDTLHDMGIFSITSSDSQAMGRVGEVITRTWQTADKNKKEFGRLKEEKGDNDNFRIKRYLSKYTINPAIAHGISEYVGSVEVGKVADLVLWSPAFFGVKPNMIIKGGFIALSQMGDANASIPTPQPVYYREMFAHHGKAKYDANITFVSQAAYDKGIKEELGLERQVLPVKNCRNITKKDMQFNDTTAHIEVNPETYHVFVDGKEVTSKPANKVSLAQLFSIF

As usually defined, the half-life is how long it takes for the measured level to halve. Consider `NP(N)(=O)NC(=O)c1ccc(F)cc1` [fluorofamide, N-(diaminophosphinyl)-4-fluorobenzamide], for which, in data set [1], the half-life is 5 min.
The Ki is the equilibrium dissociation constant of an inhibitor or competing ligand from its target. Take `CNCP(=O)(O)CO` [Compound 4, N-methylaminomethyl-P-hydroxymethylphosphinic acid]: the Ki in [2] was 1.03 µM; in [9], 0.43 µM. Also, the IC50 in data set [3] (setting [11]) was determined as 759 ± 106 µM; in [3] (setting [12]), 430 ± 63 µM; in data set [4] (setting [13]), 373 ± 48 µM; in data set [4] (setting [14]), 207 ± 11 µM; in data set [4] (setting [15]) it was 465 ± 42 µM; in data set [4] (setting [16]), 676 ± 23 µM. The IC50 in [4] (setting [17]) turned out to be 341 ± 41 µM. The inhibition at 500 µM in data set [5], in data set [6], in [7] and in data set [8] was 0% throughout.
`CCCCCCNCP(=O)(O)CN` [Compound 13, N-n-hexylaminomethyl-P-aminomethylphosphinic acid]: the Ki was 0.29 µM and 0.294 µM in data set [2]; 0.2 µM in data set [10]. Also, the IC50 in [3] (setting [11]) was determined as 186 ± 30 µM; in data set [3] (setting [12]) it was 16.9 ± 2.2 µM; in data set [4] (setting [13]), 608 ± 23 µM; in data set [4] (setting [14]), 205 ± 15 µM; in [4] (setting [15]) it was 510 ± 16 µM; in [4] (setting [16]), 742 ± 55 µM. In addition, in data set [4] (setting [17]), the IC50 is 597 ± 19 µM. The inhibition at 500 µM in [5] is 6.5 ± 3.6%; in data set [6], 0%; in data set [7] it was 0%; in data set [8], 0.5 ± 0.4%.
